Results reported in patent US20170119760A1 (AB SCIENCE, priority 2015, published 2017).

What was measured:
[1] = system: C57BL/6 mice; experiment: Mortality after MPTP intoxication; type: in vivo; conditions: 24 hours after treatment by the MPTP
Text: Brain samples were collected after mice anesthesia and sacrifice.

[2] = system: tyrosine hydroxylase expression; experiment: MPTP mouse model: tyrosine hydroxylase ELISA assay of total brain protein extract; conditions: for Mean expression of tyrosine hydroxylase: ELISA, control 0.275
Description: The microliter plate wells were coated overnight at 4° C. with 5 μg of total brain protein extract. All unbound sites were blocked with a blocking buffer 10% FCS in PBS 1 hour at room temperature. Then, the anti-tyrosine hydroxylase rabbit polyclonal antibody, diluted 1:1000 was added for 2 hours at room temperature.

[3] = system: monoamine oxidase; experiment: MPTP mouse model: monoamine oxidase fluorometric assay of total brain protein extract; conditions: for Monoamine oxidase fluorometric assay: total brain protein extract, control = 100
[4] = system: tyrosine hydroxylase expression; experiment: MPTP mouse model: tyrosine hydroxylase immunohistochemistry on coronal brain sections; type: in vivo, C57BL/6 mice; conditions: MPTP + masitinib 2×5 mg/kg; 5 μm-thick coronal sections
Description: The 5 μM-thick coronal sections were deparaffinized and hydrated, Endogenous peroxydase were inhibited with a dual endogenous enzyme block solution (Cat #S2003, DakoCytonation). Non specific protein binding was blocked with 1% BSA in PBS, pH=7,4. […] Peroxidase staining was obtained using the AbCys Histogreen substrate kit (Cat #E109, AbCys) and counterstained with a Neutral Red solution. After dehydration the sections were cover-slipped with Eukitt®.

[5] = system: human cord blood mast cells; conditions: cited from earlier work

Row | SMILES | mortality [1] | Mean expression of tyrosine hydroxylase ([2]; MPTP alone (4 × 20 mg/kg), solvent treated) | Monoamine oxidase fluorometric assay ([3]; MPTP alone) | attenuation of tyrosine hydroxylase destruction by immunohistochemistry [4] | FccRI-mediated degranulation of human cord blood mast cells [5] | decrease of tyrosine hydroxylase expression in response to MPTP treatment ([2]; MPTP + masitinib 2×5 mg/kg cohort) | Mean expression of tyrosine hydroxylase ([2]; MPTP + masitinib 2 × 5 mg/kg per os, day -7 to day 7) | Mean expression of tyrosine hydroxylase ([2]; masitinib alone 2 × 30 mg/kg per os, no MPTP) | basal expression of tyrosine hydroxylase compared with control ([2]; masitinib alone, no MPTP) | Monoamine oxidase fluorometric assay ([3]; MPTP + masitinib 2 × 5 mg/kg) | activity of monoamine oxidase with respect to the control group ([3]; MPTP in combination with masitinib)
1 | CN1CC=C(c2ccccc2)CC1 [MPTP, 1-methyl-4-phenyl-1,2,3,6-tetrahydropyridine, reference compound] | No mortality | 0.175 | 108 |  |  |  |  |  |  |  | 
2 | Cc1ccc(NC(=O)c2ccc(CN3CCN(C)CC3)cc2)cc1Nc1nc(-c2cccnc2)cs1 [Masitinib, 4-(4-methylpiperazin-1-ylmethyl)-N-[4-methyl-3-(4-pyridin-3ylthiazol-2-ylamino)phenyl]benzamide] |  |  |  | reproducible | inhibition | significantly diminished decrease | 0.215 | 0.225 | did not modify significantly | 115 | maintained
